Source: patent publication US20020115728A1, “Compositions and methods for treating cardiovascular disorders” (priority 2000, published 2002)
One block for each molecule: values may come before it.

Legend:
[1] = tested on: tocopherol-mediated peroxidation (TMP); assay: Anti-TMP index; format: biochemical
α-tocopheroxyl radical = assay: Tocopheroxyl radical attenuating ability (TRAA); format: biochemical; details: kobs with (+) or without (−) test compound
[2] = tested on: intimal thickening in rabbit aorta after arterial balloon injury; assay: Histological evaluation of aortic lesion formation after arterial balloon injury; format: in vivo, New Zealand White rabbits; details: rabbits, 0.02% PDA474, six weeks after ABI
Protocol: (§1) Twelve rabbits were initially fed standard rabbit chow ad libitum for two weeks, before commencement of the nine weeks intervention study. Six rabbits were fed 100 g per day of standard rabbit chow without (control) or with 0.02% PDA474. At the end of week three, the abdominal aorta and right iliac artery were injured by inserting a 3F Fogarty catheter into the right femoral artery and advancing it by about 25 cm to a position just above the diaphragm. The balloon was then inflated with 0.2 mL of saline, and the catheter pulled back three times. Following injury rabbits were placed back onto their respective diet for another six weeks. During the nine weeks, blood was taken from the marginal ear vein of non-fasted rabbits each week for measuring plasma PDA474 and its metabolites. At the end of week nine, the aorta, iliofemoral arteries and a portion of various tissues (liver, kidney, heart, muscle, spleen and abdominal fat) were harvested.
The lower abdominal aorta and iliofemeral arteries were pre-perfusion-fixed with 4% buffered formalin at a constant physiological pressure (˜100 mmHg) before removal and placement in 4% buffered formalin for further fixation for 12 h at room temperature. Two parts of the abdominal aorta were taken for lesion assessment. One part (referred to as A1) was located just above 3rd lumber artery close to the lumber branches, and the other part (referred to as A3) represented the central part between 3rd and 4th lumber arteries, where there are few branches. A1 and A3 specimens were embedded in paraffin and two sections (200 μm apart) were taken from each specimen and stained with Verhoeff hematoxylin.
The intima, media and intima/media ratio (IMR) were calculated by tracing the intimal and medial areas and determining their respective total pixel numbers. High IMR indicate large lesions. In addition, the perimeter of the external elastic lamina and the lumen were quantified using Scion Image Software to assess the extent of vessel remodeling.

[3] = PDA474 and metabolite levels in plasma, aorta and major tissues; format: in vivo, New Zealand White rabbits
Protocol: as §1

[4] = tested on: New Zealand White rabbits with arterial balloon injury; assay: Serum and plasma lipid profile and antioxidants; format: in vivo
Protocol: as §1

[5] = tested on: abdominal aortic rings of balloon-injured rabbits; assay: Aortic ring study (response to NE, ACh, SNP); format: in vivo, New Zealand White rabbits
Description: Following the intervention, the abdominal aorta was removed carefully, cleared of adhering fat and connective tissue, and then cut into 2 mm-wide transverse rings just under second lumbar artery (about 9 cm distal to the common iliac artery and about 5 cm below the celiac artery). This portion of the aorta contains few branches. […] Before the start of the experiments, aortic rings were allowed to equilibrate for one hour under a resting tension of 2.5 g, followed by three washes and re-equilibration of the rings between addition of drugs inducing vaso-response. At the end of each experiment, the aortic ring was weight. The vascular function was assessed in three parts:
2) The response to the endothelium-dependent vasodilator, acetylcholine (ACh). Rings were pre-constricted with PE corresponding to a dose that gave half-maximum contraction (EC50) as calculated from the dose-response curve to NE. ACh (10^−9-10^−5 M) was added after reaching a constant contriction.
3) The response to the endothelium-independent vasodilator, sodium nitroprusside (SNP) (10^−9-10^−5 M) was determined to assess vascular smooth muscle cell function.

[6] = tested on: New Zealand White rabbits with arterial balloon injury; assay: Liver function (serum AST, ALT, GGT); format: in vivo; details: for Serum ALT / Serum AST / Serum GGT: 0.02% PDA474
Protocol: as §1

[7] = tested on: cGMP production by aortic rings; assay: cGMP in homogenates of aortic rings (radioimmunoassay); format: in vivo, New Zealand White rabbits; details: aortic rings of PDA474-treated rabbits, 1 μM ACh
Protocol: cGMP in the homogenates of aortic ring was determined by a specific radioimmunoassay. […] SNP (1 μM) was used as a positive and buffer vehicle as a negative control. The cGMP content was then determined as described in the commercial assay kit (Cayman Chemical), and results expressed per tissue weight or protein.

[8] = 0.02% PDA474, Week 0 (baseline)

Molecule: Cc1cc(C(C)(C)C)c(O)c(C(C)(C)C)c1 [BHT]
Anti-TMP index [1]: 8-10
TRAA (decay of tocopheroxyl radical; kobs(+)/kobs(−)) (α-tocopheroxyl radical): Immediate decay

Fat PDA474 level ([3]; 0.02% PDA474, 9 weeks, abdominal fat): 1.99 ± 0.40 nmol/mg P
Aorta PDA474 level ([3]; 0.02% PDA474, 9 weeks, aorta): 0.59 ± 0.12 nmol/mg P
Heart PDA474 level ([3]; 0.02% PDA474, 9 weeks, heart): 0.65 ± 0.43 nmol/mg P
Kidney PDA474 level ([3]; 0.02% PDA474, 9 weeks, kidney): 0.26 ± 0.06 nmol/mg P
Liver PDA474 level ([3]; 0.02% PDA474, 9 weeks, liver): 7.30 ± 2.82 nmol/mg P
Muscle PDA474 level ([3]; 0.02% PDA474, 9 weeks, muscle): 0.17 ± 0.06 nmol/mg P
Spleen PDA474 level ([3]; 0.02% PDA474, 9 weeks, spleen): 0.30 ± 0.13 nmol/mg P
concentration at 9 weeks ([3]; New Zealand White, rabbit, oral, 0.02 % in chow, rabbits, 0.02% PDA474 in chow, 9 weeks, plasma, read-out: Plasma PDA474 level): 370 ± 40 nM
time until plasma concentrations of PDA474 reached steady state ([3]; rabbits, chow with 0.02% PDA474): 1˜2 weeks
amount of the administered PDA474 reaching the circulation ([3]; rabbits, chow with 0.02% PDA474, estimated): < 1%
Molecule: CC(C)(C)c1cc(SSc2cc(C(C)(C)C)c(O)c(C(C)(C)C)c2)cc(C(C)(C)C)c1O [PDA474]
intima-to-media ratio (IMR), Section A1 of the abdominal aorta, vs control [2]: significantly lower
media areas of abdominal aorta vs control [2]: significantly increased
vascular remodeling (lumen area, EEL perimeter) [2]: did not affect
Plasma Ascorbate [4, 8]: 34.56 ± 4.36 µmol/L
Plasma Ch18:2 [4, 8]: 0.19 ± 0.02 mmol/L
Plasma Ch20:2 [4, 8]: 0.01 ± 0.00 mmol/L
Plasma Free Chol [4, 8]: 0.49 ± 0.05 mmol/L
Plasma Total Chol [4, 8]: 0.69 ± 0.07 mmol/L
Plasma Urate [4, 8]: 5.56 ± 0.43 µmol/L
Plasma a-TOH [4, 8]: 4.40 ± 0.24 µmol/L
Serum HDL Chol [4, 8]: 0.58 ± 0.07 mmol/L
Serum Triglycerides [4, 8]: 0.95 ± 0.11 mmol/L
Plasma Ascorbate ([4]; 0.02% PDA474, Week 3 (ABI)): 44.01 ± 5.29 µmol/L
Plasma Ch18:2 ([4]; 0.02% PDA474, Week 3 (ABI)): 0.19 ± 0.02 mmol/L
Plasma Ch20:2 ([4]; 0.02% PDA474, Week 3 (ABI)): 0.08 ± 0.00 mmol/L
Plasma Free Chol ([4]; 0.02% PDA474, Week 3 (ABI)): 0.42 ± 0.03 mmol/L
Plasma Total Chol ([4]; 0.02% PDA474, Week 3 (ABI)): 0.62 ± 0.03 mmol/L
Plasma Urate ([4]; 0.02% PDA474, Week 3 (ABI)): 5.86 ± 0.65 µmol/L
Plasma a-TOH ([4]; 0.02% PDA474, Week 3 (ABI)): 5.02 ± 0.50 µmol/L
Serum Cholesterol ([4]; 0.02% PDA474, Week 3 (ABI)): 0.77 ± 0.14 mmol/L
Serum HDL Chol ([4]; 0.02% PDA474, Week 3 (ABI)): 0.50 ± 0.09 mmol/L
Serum Triglycerides ([4]; 0.02% PDA474, Week 3 (ABI)): 0.98 ± 0.15 mmol/L
Plasma Ch18:2 ([4]; 0.02% PDA474, Week 6): 0.25 ± 0.10 mmol/L
Plasma Ch20:2 ([4]; 0.02% PDA474, Week 6): 0.02 ± 0.01 mmol/L
Plasma Free Chol ([4]; 0.02% PDA474, Week 6): 0.43 ± 0.11 mmol/L
Plasma Total Chol ([4]; 0.02% PDA474, Week 6): 0.70 ± 0.21 mmol/L
Plasma a-TOH ([4]; 0.02% PDA474, Week 6): 4.76 ± 0.64 µmol/L
Serum Cholesterol ([4]; 0.02% PDA474, Week 6): 1.15 ± 0.51 mmol/L
Serum HDL Chol ([4]; 0.02% PDA474, Week 6): 0.51 ± 0.15 mmol/L
Serum Triglycerides ([4]; 0.02% PDA474, Week 6): 0.93 ± 0.08 mmol/L
Plasma Ascorbate ([4]; 0.02% PDA474, Week 9 (cull)): 46.51 ± 5.49 µmol/L
Plasma Ch18:2 ([4]; 0.02% PDA474, Week 9 (cull)): 0.16 ± 0.02 mmol/L
Plasma Ch20:2 ([4]; 0.02% PDA474, Week 9 (cull)): 0.04 ± 0.00 mmol/L
Plasma Free Chol ([4]; 0.02% PDA474, Week 9 (cull)): 0.30 ± 0.03 mmol/L
Plasma Total Chol ([4]; 0.02% PDA474, Week 9 (cull)): 0.46 ± 0.04 mmol/L
Plasma Urate ([4]; 0.02% PDA474, Week 9 (cull)): 5.24 ± 1.25 µmol/L
Plasma a-TOH ([4]; 0.02% PDA474, Week 9 (cull)): 3.60 ± 0.31 µmol/L
Serum Cholesterol ([4]; 0.02% PDA474, Week 9 (cull)): 0.67 ± 0.06 mmol/L
Serum HDL Chol ([4]; 0.02% PDA474, Week 9 (cull)): 0.42 ± 0.04 mmol/L
Serum Triglycerides ([4]; 0.02% PDA474, Week 9 (cull)): 0.97 ± 0.13 mmol/L
hypocholesterolemic effect ([4]; rabbits, 0.02% PDA474, 9 weeks): no hypocholesterolemic effect
Serum Cholesterol ([4]; rabbits, chow with 0.02% PDA474, Week 0 (baseline)): 1.13 ± 0.15 mmol/L
muscle tone (g/mg tissue) vs control aortic rings ([5]; NE-induced constriction, PDA474-treated rabbits): nearly twice as high
SNP-induced relaxation vs control ([5]; rings from PDA474-treated rabbits): comparable
ACh-induced relaxation of aortic rings ([5]; rings from PDA474-treated rabbits, pre-constricted with NE at EC50, maximal response at ˜10^−5M ACh): 61 % relaxation
NE-induced constriction of abdominal aortic rings vs control ([5]; rings from balloon-injured rabbits fed 0.02% PDA474): significantly increased
Serum ALT ([6]; Week 0 (baseline)): 51.17 ± 3.08 U/L
Serum AST ([6]; Week 0 (baseline)): 28.17 ± 2.65 U/L
Serum GGT ([6]; Week 0 (baseline)): 11.50 ± 1.06 U/L
Serum ALT ([6]; Week 3 (ABI)): 76.00 ± 8.13 U/L
Serum AST ([6]; Week 3 (ABI)): 63.33 ± 23.47 U/L
Serum GGT ([6]; Week 3 (ABI)): 12.33 ± 2.29 U/L
Serum ALT ([6]; Week 6): 72.83 ± 5.19 U/L
Serum AST ([6]; Week 6): 33.83 ± 8.79 U/L
Serum GGT ([6]; Week 6): 13.67 ± 0.76 U/L
Serum ALT ([6]; Week 9 (cull)): 100.67 ± 10.43 U/L
Serum AST ([6]; Week 9 (cull)): 69.67 ± 14.34 U/L
Serum GGT ([6]; Week 9 (cull)): 12.33 ± 0.99 U/L
effect on liver function ([6]; rabbits, 0.02% PDA474, 9 weeks): did not affect liver function
tissue cGMP concentrations in response to ACh vs control [7]: significantly increased

Molecule: diphenoquinone [H 330/68]
Anti-TMP index [1]: 100
TRAA (decay of tocopheroxyl radical; kobs(+)/kobs(−)) (α-tocopheroxyl radical): kobs(+)/kobs(−)˜1
